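Assay format: 96-well plates, 48-hour exposure. GI50: concentration for 50% inhibition of growth. TGI: concentration producing complete growth inhibition.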
Experiments:
Assay in all cases: growth of human tumour cells (NCI), 48 h
BT-549 breast = test system: BT-549 breast
NCI-H226 lung = test system: NCI-H226 lung
MCF7 breast = test system: MCF7 breast
HCT-15 colon = test system: HCT-15 colon
CAKI-1 renal = test system: CAKI-1 renal
SNB-75 CNS = test system: SNB-75 CNS
SN12C renal = test system: SN12C renal
SF-295 CNS = test system: SF-295 CNS
SW-620 colon = test system: SW-620 colon
OVCAR-5 ovarian = test system: OVCAR-5 ovarian

Nc1ccccc1-c1ccc([N+](=O)[O-])cc1
GI50 (BT-549 breast): 4.54 µM
TGI (BT-549 breast): 37.1 µM
GI50 (NCI-H226 lung): 33.6 µM
TGI (NCI-H226 lung): > 100 µM
GI50 (MCF7 breast): 35 µM
TGI (MCF7 breast): > 100 µM
GI50 (HCT-15 colon): 14.3 µM
TGI (HCT-15 colon): > 100 µM
GI50 (CAKI-1 renal): 1.71 µM
TGI (CAKI-1 renal): > 100 µM
GI50 (SNB-75 CNS): > 100 µM
TGI (SNB-75 CNS): > 100 µM
GI50 (SN12C renal): 11.2 µM
TGI (SN12C renal): > 100 µM
GI50 (SF-295 CNS): 2.18 µM
TGI (SF-295 CNS): 64.8 µM
GI50 (SW-620 colon): 19.3 µM
TGI (SW-620 colon): > 100 µM
GI50 (OVCAR-5 ovarian): 31.8 µM
TGI (OVCAR-5 ovarian): > 100 µM

CCN(CC)CCCn1cnc2ncccc2c1=O
TGI (NCI-H226 lung): > 100 µM
TGI (CAKI-1 renal): > 100 µM
TGI (SNB-75 CNS): > 100 µM
TGI (SN12C renal): > 100 µM
TGI (SF-295 CNS): > 100 µM
TGI (SW-620 colon): > 100 µM
TGI (OVCAR-5 ovarian): > 100 µM

Cc1ccc2c(c1)c1nc3cc(C)c(C)cc3nc1n2CCN(C)C
GI50 (BT-549 breast): 2.46 µM
TGI (BT-549 breast): 9.05 µM
GI50 (NCI-H226 lung): 1.86 µM
TGI (NCI-H226 lung): 4.69 µM
GI50 (MCF7 breast): 2.91 µM
TGI (MCF7 breast): 9.7 µM
GI50 (HCT-15 colon): 1.91 µM
TGI (HCT-15 colon): 7.75 µM
GI50 (CAKI-1 renal): 1.33 µM
TGI (CAKI-1 renal): 4.46 µM
GI50 (SNB-75 CNS): 1.5 µM
TGI (SNB-75 CNS): 6.41 µM
GI50 (SN12C renal): 1.44 µM
TGI (SN12C renal): 8.77 µM
GI50 (SF-295 CNS): 2.37 µM
TGI (SF-295 CNS): 6.62 µM
GI50 (SW-620 colon): 1.13 µM
TGI (SW-620 colon): 5.46 µM
GI50 (OVCAR-5 ovarian): 2.4 µM
TGI (OVCAR-5 ovarian): 7.65 µM

CC1(Cl)CC2OC3(Br)C=CC(C)(O)C2(CC1Br)C3(C)C (centres undefined)
TGI (NCI-H226 lung): > 100 µM
TGI (HCT-15 colon): > 100 µM
TGI (CAKI-1 renal): > 100 µM
TGI (SNB-75 CNS): > 100 µM
TGI (SN12C renal): > 100 µM
TGI (SF-295 CNS): > 100 µM
TGI (SW-620 colon): > 100 µM
TGI (OVCAR-5 ovarian): > 100 µM

Nc1cc(C(=O)O)[nH]c(=O)n1
TGI (BT-549 breast): > 100 µM
TGI (NCI-H226 lung): > 100 µM
TGI (MCF7 breast): > 100 µM
TGI (HCT-15 colon): > 100 µM
TGI (CAKI-1 renal): > 100 µM
TGI (SN12C renal): > 100 µM
TGI (SF-295 CNS): > 100 µM
TGI (SW-620 colon): > 100 µM
TGI (OVCAR-5 ovarian): > 100 µM

CSc1cccc(-n2c3nc(=O)n(C)c(=O)c-3nc3ccccc32)c1
TGI (NCI-H226 lung): 28.9 µM
TGI (HCT-15 colon): 23.3 µM
TGI (CAKI-1 renal): 19.7 µM
TGI (SNB-75 CNS): 28.6 µM
TGI (SN12C renal): 17.9 µM
TGI (SF-295 CNS): 23.6 µM
TGI (SW-620 colon): 22 µM
TGI (OVCAR-5 ovarian): 32 µM

Cc1ccccc1C1=[N+]([O-])c2ccccc2C1=O
TGI (NCI-H226 lung): 30.7 µM
TGI (HCT-15 colon): 34.8 µM
TGI (SNB-75 CNS): 47 µM
TGI (SN12C renal): 32.1 µM
TGI (SF-295 CNS): 44.9 µM
TGI (SW-620 colon): 45.1 µM
TGI (OVCAR-5 ovarian): 43.1 µM

COC(c1cccc(C(O)(C(F)(F)F)C(F)(F)F)c1)(C(F)(F)F)C(F)(F)F
TGI (NCI-H226 lung): 37.8 µM
TGI (HCT-15 colon): 53.9 µM
TGI (CAKI-1 renal): 39.7 µM
TGI (SNB-75 CNS): 32.1 µM
TGI (SN12C renal): 32.2 µM
TGI (SF-295 CNS): 30.2 µM
TGI (SW-620 colon): 32.9 µM
TGI (OVCAR-5 ovarian): 32.4 µM

COc1ccc(NC(=O)CC(=O)N2N=C(N(CCC#N)c3ccccc3Cl)CC2c2ccccc2)cc1 (centres undefined)
TGI (NCI-H226 lung): > 100 µM
TGI (HCT-15 colon): > 100 µM
TGI (CAKI-1 renal): > 100 µM
TGI (SNB-75 CNS): > 100 µM
TGI (SN12C renal): > 100 µM
TGI (SF-295 CNS): > 100 µM
TGI (SW-620 colon): > 100 µM
TGI (OVCAR-5 ovarian): > 100 µM

O=C(Nc1ccccc1)c1nn(-c2cc(S(=O)(=O)O)c([N+](=O)[O-])cc2Cl)[n+](-c2cc(S(=O)(=O)[O-])c([N+](=O)[O-])cc2Cl)n1
TGI (NCI-H226 lung): > 100 µM
TGI (MCF7 breast): > 100 µM
TGI (HCT-15 colon): > 100 µM
TGI (CAKI-1 renal): > 100 µM
TGI (SNB-75 CNS): > 100 µM
TGI (SN12C renal): > 100 µM
TGI (SF-295 CNS): > 100 µM
TGI (SW-620 colon): > 100 µM
TGI (OVCAR-5 ovarian): > 100 µM

CC(=O)CCc1ccc(OC2OC(COC(=O)c3cc(O)c(O)c(O)c3)C(O)C(O)C2OC(=O)/C=C/c2ccccc2)cc1 (centres undefined)
GI50 (BT-549 breast): 35.6 µM
TGI (BT-549 breast): 64.6 µM
GI50 (NCI-H226 lung): 16.9 µM
TGI (NCI-H226 lung): 37 µM
GI50 (MCF7 breast): 22.7 µM
TGI (MCF7 breast): 47.1 µM
GI50 (HCT-15 colon): 26.2 µM
TGI (HCT-15 colon): > 100 µM
GI50 (CAKI-1 renal): 29.7 µM
TGI (CAKI-1 renal): > 100 µM
GI50 (SN12C renal): 20.4 µM
TGI (SN12C renal): 44.4 µM
GI50 (SF-295 CNS): 24.5 µM
TGI (SF-295 CNS): 52.2 µM
GI50 (SW-620 colon): 35.1 µM
TGI (SW-620 colon): 97.5 µM
GI50 (OVCAR-5 ovarian): 15.6 µM
TGI (OVCAR-5 ovarian): 32.1 µM

CC[O-].CC[O-].O=C([CH-]C(=O)c1cccnc1)c1ccccc1.O=C([CH-]C(=O)c1cccnc1)c1ccccc1.[Ti+4]
GI50 (NCI-H226 lung): 68.1 µM
TGI (NCI-H226 lung): > 100 µM
GI50 (HCT-15 colon): 18.3 µM
TGI (HCT-15 colon): > 100 µM
GI50 (CAKI-1 renal): > 100 µM
TGI (CAKI-1 renal): > 100 µM
GI50 (SNB-75 CNS): 19.9 µM
TGI (SNB-75 CNS): 69 µM
GI50 (SN12C renal): > 100 µM
TGI (SN12C renal): > 100 µM
GI50 (SF-295 CNS): 77.6 µM
TGI (SF-295 CNS): > 100 µM
GI50 (SW-620 colon): 96.8 µM
TGI (SW-620 colon): > 100 µM
GI50 (OVCAR-5 ovarian): > 100 µM
TGI (OVCAR-5 ovarian): > 100 µM

Nc1nc(N)c(Cn2ccnc2)c(=O)[nH]1
TGI (BT-549 breast): > 100 µM
TGI (NCI-H226 lung): > 100 µM
TGI (MCF7 breast): > 100 µM
TGI (HCT-15 colon): > 100 µM
TGI (CAKI-1 renal): > 100 µM
TGI (SNB-75 CNS): > 100 µM
TGI (SN12C renal): > 100 µM
TGI (SF-295 CNS): > 100 µM
TGI (OVCAR-5 ovarian): > 100 µM

C/C=C/C1=C(Cl)C(=O)[C@@H](Cl)[C@@]1(O)C(=O)OC
TGI (NCI-H226 lung): 15.7 µM
TGI (MCF7 breast): 3.89 µM
TGI (HCT-15 colon): 4.43 µM
TGI (CAKI-1 renal): 8.4 µM
TGI (SNB-75 CNS): 32.8 µM
TGI (SN12C renal): 7.15 µM
TGI (SF-295 CNS): 27.9 µM
TGI (SW-620 colon): 3.1 µM
TGI (OVCAR-5 ovarian): 24.5 µM

Cc1cc(Cl)cc2c(N=Nc3ccccc3[N+](=O)[O-])c(O)[nH]c12
TGI (BT-549 breast): > 100 µM
TGI (MCF7 breast): > 100 µM
TGI (HCT-15 colon): > 100 µM
TGI (CAKI-1 renal): > 100 µM
TGI (SNB-75 CNS): > 100 µM
TGI (SN12C renal): > 100 µM
TGI (SF-295 CNS): > 100 µM
TGI (SW-620 colon): > 100 µM
TGI (OVCAR-5 ovarian): > 100 µM

CC(=O)Oc1cc(C)c2c(c1OC(C)=O)CC1(O2)[C@@H](C)CCC2[C@@]3(C)CC[C@H](OC(C)=O)C(C)(C)C3CC[C@]21C (some centres undefined)
TGI (NCI-H226 lung): 25.6 µM
TGI (HCT-15 colon): 13 µM
TGI (CAKI-1 renal): 4.3 µM
TGI (SNB-75 CNS): 14.9 µM
TGI (SN12C renal): 11.8 µM
TGI (SF-295 CNS): 16.2 µM
TGI (SW-620 colon): 12.3 µM
TGI (OVCAR-5 ovarian): 17.4 µM

O=C(Nc1ccc(F)cc1)Nc1ccccc1CNc1nc(Nc2ccc(OCCN3CCCC3)cc2)ncc1Cl
GI50 (BT-549 breast): 5.15 µM
TGI (BT-549 breast): 11.2 µM
GI50 (MCF7 breast): 1.37 µM
TGI (MCF7 breast): 4.75 µM
GI50 (HCT-15 colon): 1.58 µM
TGI (HCT-15 colon): 6.06 µM
GI50 (CAKI-1 renal): 2.87 µM
TGI (CAKI-1 renal): 9.25 µM
GI50 (SNB-75 CNS): 0.677 µM
TGI (SNB-75 CNS): 1.35 µM
GI50 (SN12C renal): 0.984 µM
TGI (SN12C renal): 2.01 µM
GI50 (SF-295 CNS): 1.97 µM
TGI (SF-295 CNS): 7.67 µM
GI50 (SW-620 colon): 1.65 µM
TGI (SW-620 colon): 6.84 µM
GI50 (OVCAR-5 ovarian): 1.76 µM
TGI (OVCAR-5 ovarian): 6.88 µM

CC(C)Nc1ccc(Nc2ccccc2)cc1
GI50 (BT-549 breast): 11.3 µM
TGI (BT-549 breast): 33.9 µM
GI50 (NCI-H226 lung): 19.9 µM
TGI (NCI-H226 lung): 69.3 µM
GI50 (MCF7 breast): 11.1 µM
TGI (MCF7 breast): 31.9 µM
GI50 (HCT-15 colon): 21.5 µM
TGI (HCT-15 colon): 77 µM
GI50 (CAKI-1 renal): 4.06 µM
TGI (CAKI-1 renal): 17.4 µM
GI50 (SNB-75 CNS): 21.5 µM
TGI (SNB-75 CNS): > 100 µM
GI50 (SN12C renal): 27.1 µM
TGI (SN12C renal): > 100 µM
GI50 (SW-620 colon): 15.8 µM
TGI (SW-620 colon): 45.8 µM
GI50 (OVCAR-5 ovarian): 24.6 µM
TGI (OVCAR-5 ovarian): 57.1 µM
